Patent US10221147B2, “Heterocyclic compounds with working memory enhancing activity” (Red Bull GmbH, priority 2014, dated 2019)
pEC50: −log10 of the molar value.

Experiments:
[1] = target: T1, serotonin transporter (SERT) (Homo sapiens, UniProt P31645); test: Substrate uptake inhibition in HEK-SERT cells; assay type: cell-based; details: human SERT expressed in HEK293, substrate uptake
T1 construct: expressed in transfected cells; host or cells: HEK293 (HEK-SERT)
Experimental: (§1) The human isoforms of DAT, SERT and NET were expressed in HEK293 (HEK-DAT, HEK-SERT and HEK-NET) cells. DAT inhibitors-mediated monoamine transporter effects on substrate uptake were analyzed according to procedure described by Sitte et al. In brief, cells were grown in poly-d-lysine coated 96-well plates, incubated with compounds diluted in Krebs-Ringer-HEPES buffer, substrates were subsequently added, cells were lysed with 1% SDS (sodium dodecyl sulphate) and released radioactivity was measure by a liquid scintillation counter (23).
(§2) EC50-values for the dopamine transporter (DAT), the norepinephrine transporter (NET) and the serotonin transporter (SERT) were obtained: […]

[2] = target: T2, norepinephrine transporter (NET) (Homo sapiens, UniProt P23975); test: Substrate uptake inhibition in HEK-NET cells; assay type: cell-based; details: human NET expressed in HEK293, substrate uptake
T2 construct: expressed in transfected cells; host or cells: HEK293 (HEK-NET)
T2 sequence (P23975 whole entry): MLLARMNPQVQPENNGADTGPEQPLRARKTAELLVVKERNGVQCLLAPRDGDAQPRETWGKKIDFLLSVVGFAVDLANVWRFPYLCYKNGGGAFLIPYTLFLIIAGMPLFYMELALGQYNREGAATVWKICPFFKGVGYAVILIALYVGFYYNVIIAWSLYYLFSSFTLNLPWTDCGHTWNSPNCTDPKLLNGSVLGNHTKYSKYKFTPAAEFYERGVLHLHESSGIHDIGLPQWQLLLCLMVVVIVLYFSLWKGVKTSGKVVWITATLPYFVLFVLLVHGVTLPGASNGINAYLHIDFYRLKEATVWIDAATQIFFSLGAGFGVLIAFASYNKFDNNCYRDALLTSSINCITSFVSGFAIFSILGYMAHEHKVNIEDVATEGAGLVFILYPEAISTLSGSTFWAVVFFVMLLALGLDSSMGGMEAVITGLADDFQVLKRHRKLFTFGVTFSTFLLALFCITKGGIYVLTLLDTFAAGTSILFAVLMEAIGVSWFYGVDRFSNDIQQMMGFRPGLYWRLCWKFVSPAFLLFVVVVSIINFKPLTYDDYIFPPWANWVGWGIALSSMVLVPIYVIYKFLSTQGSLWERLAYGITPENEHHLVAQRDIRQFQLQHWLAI
Experimental: as §1, §2

[3] = target: T3, dopamine transporter (DAT) (Homo sapiens, UniProt Q01959); test: Substrate uptake inhibition in HEK-DAT cells; assay type: cell-based; details: for inhibition of DAT and selectivity against SERT and NET: verbal summary of EC50 values
T3 construct: expressed in transfected cells; host or cells: HEK293 (HEK-DAT)
T3 sequence (Q01959 whole entry): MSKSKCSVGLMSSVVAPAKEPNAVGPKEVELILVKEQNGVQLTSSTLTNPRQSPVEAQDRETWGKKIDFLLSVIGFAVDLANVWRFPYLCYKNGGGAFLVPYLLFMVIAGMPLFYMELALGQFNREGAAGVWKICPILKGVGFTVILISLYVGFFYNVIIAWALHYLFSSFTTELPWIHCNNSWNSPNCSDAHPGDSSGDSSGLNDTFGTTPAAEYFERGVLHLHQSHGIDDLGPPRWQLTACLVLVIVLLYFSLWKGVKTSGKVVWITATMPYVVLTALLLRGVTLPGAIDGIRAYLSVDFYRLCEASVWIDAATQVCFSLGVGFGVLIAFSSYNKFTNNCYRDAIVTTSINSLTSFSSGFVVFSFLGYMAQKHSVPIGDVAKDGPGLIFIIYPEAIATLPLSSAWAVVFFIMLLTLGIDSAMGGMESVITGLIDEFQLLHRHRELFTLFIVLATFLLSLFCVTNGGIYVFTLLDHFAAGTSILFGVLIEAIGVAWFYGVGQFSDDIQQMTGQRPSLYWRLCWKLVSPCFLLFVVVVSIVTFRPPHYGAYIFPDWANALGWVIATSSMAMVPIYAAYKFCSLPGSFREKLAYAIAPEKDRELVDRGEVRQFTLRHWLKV
Experimental: as §1, §2

Male Sprague Dawley rats = test: 12 arm radial arm maze (RAM), working memory errors; assay type: in vivo, rat; details: versus DMSO-injected counterparts
Source text: One such animal model is the radial arm maze using rats and is given in detail in Timofeva O. et al., Brain Res. 1308 (2010) 147-152: Wenk G. et al.; The Journal of Neuroscience (2004) 8.5A.1-8.5A.12; Akoto M. et al.; The Journal of Neuroscience (2000)20 (189: 7116-7121: Levin E D et al.; Behavioral Brain Res. 208 (2010) 319-327. Li-Bo Z. et al.; Neuropharmacology 37, 1998) 323-330. Roegge, C S. et al.; Toxicological Sciences 57, 121-30 (2000).
Male Sprague Dawley rats were used for the studies aged between 12-14 weeks. Twelve rats per group were used for this study. All rats were obtained from Core Unit of Biomedical Research, Division of Laboratory Animal Science and Genetics, Medical University of Vienna and maintained in cages made of makrolon and filled with autoclaved woodchips and water in bottles was available ad libitum. The room was illuminated with artificial light at an intensity of about 200 lx in 2 m from 5 am to 7 pm. Radial arm maze (RAM) training was performed between 8:00 h and 13:00 h. […]
Before starting the training, rats were given two habituation sessions in which food was placed all over the maze and rats were allowed to explore the maze and consume the food for 5 minutes. […] An arm was baited only once and a repeated entry into a baited arm was counted as a working memory error, whereas any entry into an un-baited arm was recorded as a reference memory error. […]

T1 sequence (P31645 whole entry): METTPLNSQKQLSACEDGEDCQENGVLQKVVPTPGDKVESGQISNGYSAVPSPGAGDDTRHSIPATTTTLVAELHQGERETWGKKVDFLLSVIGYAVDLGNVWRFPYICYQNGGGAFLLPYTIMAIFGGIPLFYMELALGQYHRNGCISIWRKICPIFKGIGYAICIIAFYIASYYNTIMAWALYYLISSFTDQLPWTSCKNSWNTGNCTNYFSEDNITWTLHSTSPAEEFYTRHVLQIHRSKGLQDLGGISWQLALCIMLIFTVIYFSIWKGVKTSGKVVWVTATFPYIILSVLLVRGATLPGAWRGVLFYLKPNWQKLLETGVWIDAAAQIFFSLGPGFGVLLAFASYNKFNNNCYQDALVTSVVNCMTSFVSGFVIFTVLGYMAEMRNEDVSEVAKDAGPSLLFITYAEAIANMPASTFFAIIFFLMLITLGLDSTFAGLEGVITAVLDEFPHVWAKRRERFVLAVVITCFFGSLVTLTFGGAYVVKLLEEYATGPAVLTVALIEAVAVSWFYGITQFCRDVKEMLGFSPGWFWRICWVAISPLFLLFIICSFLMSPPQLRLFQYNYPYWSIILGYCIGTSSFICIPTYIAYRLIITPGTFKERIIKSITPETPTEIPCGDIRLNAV

| Structure (SMILES) | pEC50 [1] | pEC50 [2] | pEC50 [3] | inhibition of DAT and selectivity against SERT and NET [3] | melting point [°C] | performance in RAM training from day eight (working memory errors) (Male Sprague Dawley rats; day eight to ten, p<0.05) | performance in RAM training up to day seven (Male Sprague Dawley rats; up to day seven) |
| --- | --- | --- | --- | --- | --- | --- | --- |
| [O-][S+](Cc1cscn1)C(c1ccccc1)c1ccccc1 (stereo not drawn) [4-(diphenylmethanesulfinylmethyl)-1,3-thiazole] | 3.34 | 3.26 | 5.14 | excellent inhibition and selectivity against SERT and NET |  |  |  |
| Cc1csc(C[S+]([O-])C(c2ccccc2)c2ccccc2)n1 (stereo not drawn) |  |  |  |  | 104 to 107 |  |  |
| [O-][S+](Cc1csc(C2CC2)n1)C(c1ccccc1)c1ccccc1 (stereo not drawn) [4-(diphenylmethanesulfinylmethyl)-2-cyclopropyl-1,3-thiazole] | 3.36 | 3.11 | 5.39 | excellent inhibition and selectivity against SERT and NET |  |  |  |
| [O-][S+](Cc1nccs1)C(c1ccccc1)c1ccccc1 (stereo not drawn) [C1, 2-(diphenylmethanesulfinylmethyl}-1,3-thiazole] |  |  |  |  | 119 to 122 | performed better | comparable level |
